# Source: ChEMBL document CHEMBL1201862, “PubChem BioAssay data set” (2004)
# Activity calls are given as the source filed them.
# Tests used:
# [1] = molecular target: T1, Heat shock factor protein 1 (Mus musculus, UniProt P38532); assay: decrease of HSF1-responsive luciferase luminescence – cell-based, NIH3T3, dose retest, confirmation (AID 2382); type: functional;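 further: NIH3T3 fibroblasts with HSF1-driven luciferase reporter stressed by proteasome inhibitor MG132; luminescence from HSF1-driven luciferase expression after 8 hours of MG132 stress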
# T1 sequence (P38532 whole entry): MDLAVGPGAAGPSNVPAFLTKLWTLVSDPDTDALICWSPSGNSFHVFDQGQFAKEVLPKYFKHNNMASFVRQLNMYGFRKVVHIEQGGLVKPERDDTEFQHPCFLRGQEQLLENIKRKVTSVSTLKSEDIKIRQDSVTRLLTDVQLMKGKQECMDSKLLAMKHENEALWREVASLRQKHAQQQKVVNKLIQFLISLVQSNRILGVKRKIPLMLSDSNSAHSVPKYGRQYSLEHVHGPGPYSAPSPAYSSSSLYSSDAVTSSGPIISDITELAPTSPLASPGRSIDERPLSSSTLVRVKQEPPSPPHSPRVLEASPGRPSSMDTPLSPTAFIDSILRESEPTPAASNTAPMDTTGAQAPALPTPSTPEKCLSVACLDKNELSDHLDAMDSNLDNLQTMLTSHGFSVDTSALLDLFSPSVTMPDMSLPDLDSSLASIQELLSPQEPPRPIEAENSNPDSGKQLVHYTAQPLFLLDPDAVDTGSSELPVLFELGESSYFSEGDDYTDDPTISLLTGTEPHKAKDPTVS
# [2] = viability of uninfected HEp-2 cells – cell-based, HTS, cytotoxicity control for RSV inhibitor project, dose response (AID 2410); type: functional; conditions: human respiratory syncytial virus
# [3] = Trypanosoma cruzi growth suppression in host cells – NIH3T3 host cells, beta-gal luminescence, confirmation (AID 2044); type: functional, cell-based;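 further: intracellular parasites grown in NIH/3T3 mouse fibroblasts as host cells; luminescent beta-galactosidase reporter signal from transgenic T. cruzi replicating inside host cells; inhibitors lower the luminescence signal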
# [4] = NIH3T3 cell viability loss – ATP luminescence, mouse fibroblasts, counter-screen, dose response (AID 2010); type: functional, cell-based;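 further: cells exposed to compound for about 90 hours before reading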
# [5] = molecular target: FAD-linked sulfhydryl oxidase ALR (Homo sapiens, UniProt P55789); assay: ALR-catalysed DTT oxidation blockers – biochemical, H2O2 detection, luminescence, cherry-pick, dose response (AID 493248)
# BJ [6] = assay: BJ-TERT-LT-ST fibroblast viability loss – cell-based, RAS-independent, luminescence, dose response (AID 1935); type: functional; conditions: Homo sapiens;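 further: BJ fibroblasts immortalized with TERT plus LT and ST oncogenes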
# BJ [7] = assay: BJ-TERT fibroblast viability loss – cell-based, RAS-independent, luminescence, dose response (AID 1933); type: functional; conditions: Homo sapiens
# [8] = DRD fibroblast viability loss – cell-based, non-viral oncogenic, luminescence, dose response (AID 1934); type: functional; conditions: Homo sapiens
# BJ [9] = assay: cells; type: functional, cell-based; conditions: Homo sapiens
# [10] = luciferase reporter signal suppression in cells – H4 neuroglioma cells, luminescence, dose response (AID 1990); type: functional, cell-based
# [11] = Luminescence Cell-Based Dose Response HTS to Identify Inhibitors of 5'UTR Stem-Loop Driven Prion Protein mRNA Translation in H4 Neuroglioblastoma Cells. [Related pubchem assays: 1827 (Project Summary), 1813 (Primary HTS)]; type: functional
# [12] = alpha-synuclein stem-loop luciferase translation blockers – H4 neuroglioma cells, luminescence, confirmation (AID 1988); type: functional, cell-based
# Streptokinase A = molecular target: T2, Streptokinase A (Streptococcus pyogenes serotype M1, UniProt P10520); assay: viability-normalized secreted streptokinase activity reduction – plasminogen activation absorbance, OD405, dose response (AID 1914); type: functional, Streptococcus pyogenes M1 GAS;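 further: secreted streptokinase activity via plasminogen activation per viability signal from cell pellet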
# T2 sequence (P10520 whole entry): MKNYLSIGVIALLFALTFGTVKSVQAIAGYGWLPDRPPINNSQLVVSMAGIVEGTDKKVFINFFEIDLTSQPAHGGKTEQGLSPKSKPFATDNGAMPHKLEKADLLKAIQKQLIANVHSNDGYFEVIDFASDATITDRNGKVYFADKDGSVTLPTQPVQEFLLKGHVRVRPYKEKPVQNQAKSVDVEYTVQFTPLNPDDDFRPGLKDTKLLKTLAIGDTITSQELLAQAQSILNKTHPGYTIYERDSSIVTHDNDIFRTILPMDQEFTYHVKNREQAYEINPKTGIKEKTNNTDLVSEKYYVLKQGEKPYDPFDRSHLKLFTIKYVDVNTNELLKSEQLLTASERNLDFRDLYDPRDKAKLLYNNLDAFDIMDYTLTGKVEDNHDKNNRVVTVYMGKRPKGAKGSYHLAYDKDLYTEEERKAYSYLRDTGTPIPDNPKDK
# Cytochrome P450 1A2 = molecular target: T3, Cytochrome P450 1A2 (Homo sapiens, UniProt P05177);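 further: PubChem cytochrome P450 panel assay, CYP1A2 panel member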
# T3 sequence (P05177 whole entry): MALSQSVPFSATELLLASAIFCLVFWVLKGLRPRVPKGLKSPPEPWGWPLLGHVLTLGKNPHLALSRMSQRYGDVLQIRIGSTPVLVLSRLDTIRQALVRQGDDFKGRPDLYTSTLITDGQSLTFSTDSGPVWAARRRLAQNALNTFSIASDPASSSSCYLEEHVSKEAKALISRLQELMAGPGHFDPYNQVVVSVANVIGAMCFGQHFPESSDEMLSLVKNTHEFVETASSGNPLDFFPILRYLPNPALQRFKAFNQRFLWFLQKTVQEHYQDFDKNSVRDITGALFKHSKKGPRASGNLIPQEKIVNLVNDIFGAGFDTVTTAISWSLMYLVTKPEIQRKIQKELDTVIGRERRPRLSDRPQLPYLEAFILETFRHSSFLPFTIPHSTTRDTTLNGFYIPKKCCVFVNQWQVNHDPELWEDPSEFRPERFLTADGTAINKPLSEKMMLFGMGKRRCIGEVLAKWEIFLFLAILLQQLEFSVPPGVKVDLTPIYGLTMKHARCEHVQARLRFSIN
# [13] = system: Streptococcus sp. 'group A'; assay: Streptococcus pyogenes SK(-)GAS viability under kanamycin – luminescence, BacTiterGlo, confirmation, counter-screen for streptokinase expression inhibitor project, dose response (AID 1900); type: functional, organism-based
# Streptococcus = assay: GAS UMAA2166 growth inhibition – luminescence, BacTiterGlo, counter-screen for streptokinase expression inhibitor project, dose response (AID 1915); type: functional, organism-based;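 further: potency for reduction of bacterial viability or growth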
# [14] = Luminescence Cell-Based Dose Retest to Confirm Inhibitors of Cancer Stem Cells. [Related pubchem assays (depositor defined):AID2717, AID2721]; type: functional; conditions: Homo sapiens
# H4 = assay: Luminescence Cell-Based Dose Response HTS to Identify Activators of 5'UTR Stem-Loop Driven Prion Protein mRNA Translation in H4 Neuroglioblastoma Cells. [Related pubchem assays: 1829 (Project Summary), 1814 (Primary HTS)]; type: functional; conditions: Homo sapiens
# [15] = Luminescence Cell-Based Dose Confirmation HTS to Identify Activators of 5'UTR Stem-Loop Driven Alpha-Synuclein mRNA Translation in H4 Neuroglioblastoma Cells. [Related pubchem assays: 1829 (Project Summary), 1814 (Primary HTS)]; type: functional
# [16] = Luminescence Cell-Based Dose Response HTS to Identify Activators of Luciferase Translation or Activity in H4 […] Cells. [Related pubchem assays: 1829 (Project Summary), 1814 (Primary HTS)]; type: functional
# Large T antigen = Large T antigen (Simian virus 40, UniProt P03070); type: functional, Betapolyomavirus macacae;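 further: Confirmatory-stage PubChem screen for compounds that inhibit SV40 T antigen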
# Cytochrome P450 2D6 = Cytochrome P450 2D6 (Homo sapiens, UniProt P10635);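 further: CYP2D6 member of a cytochrome P450 panel assay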
# Cytochrome P450 2C19 = Cytochrome P450 2C19 (Homo sapiens, UniProt P33261); assay: Cytochrome panel assay with activity outcomes. Panel member name: p450-cyp2c19 Compounds with AC50 equal or less than 10 uM are considered active; type: functional; conditions: read-out: AC50
# Cytochrome P450 2C19, sequence (P33261 whole entry): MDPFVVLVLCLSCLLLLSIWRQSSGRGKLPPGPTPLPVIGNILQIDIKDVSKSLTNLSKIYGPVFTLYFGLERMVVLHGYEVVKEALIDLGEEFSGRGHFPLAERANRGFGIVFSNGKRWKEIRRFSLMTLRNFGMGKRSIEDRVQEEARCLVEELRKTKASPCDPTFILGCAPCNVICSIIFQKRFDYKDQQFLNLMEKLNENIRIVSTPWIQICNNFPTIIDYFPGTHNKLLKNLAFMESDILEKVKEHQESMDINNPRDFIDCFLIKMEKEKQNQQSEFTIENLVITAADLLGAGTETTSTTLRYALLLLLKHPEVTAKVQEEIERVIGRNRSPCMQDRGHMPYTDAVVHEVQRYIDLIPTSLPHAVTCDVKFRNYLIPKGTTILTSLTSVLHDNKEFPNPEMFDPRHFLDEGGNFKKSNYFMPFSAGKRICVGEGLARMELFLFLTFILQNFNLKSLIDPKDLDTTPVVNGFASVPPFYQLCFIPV
# FAD-linked sulfhydryl oxidase ALR, sequence (P55789 whole entry): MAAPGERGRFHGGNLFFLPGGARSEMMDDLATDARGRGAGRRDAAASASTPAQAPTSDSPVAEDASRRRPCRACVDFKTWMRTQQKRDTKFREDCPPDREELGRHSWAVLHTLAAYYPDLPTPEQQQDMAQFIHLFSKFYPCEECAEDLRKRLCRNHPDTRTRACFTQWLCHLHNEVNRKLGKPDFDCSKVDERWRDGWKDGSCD
# Large T antigen, sequence (P03070 whole entry): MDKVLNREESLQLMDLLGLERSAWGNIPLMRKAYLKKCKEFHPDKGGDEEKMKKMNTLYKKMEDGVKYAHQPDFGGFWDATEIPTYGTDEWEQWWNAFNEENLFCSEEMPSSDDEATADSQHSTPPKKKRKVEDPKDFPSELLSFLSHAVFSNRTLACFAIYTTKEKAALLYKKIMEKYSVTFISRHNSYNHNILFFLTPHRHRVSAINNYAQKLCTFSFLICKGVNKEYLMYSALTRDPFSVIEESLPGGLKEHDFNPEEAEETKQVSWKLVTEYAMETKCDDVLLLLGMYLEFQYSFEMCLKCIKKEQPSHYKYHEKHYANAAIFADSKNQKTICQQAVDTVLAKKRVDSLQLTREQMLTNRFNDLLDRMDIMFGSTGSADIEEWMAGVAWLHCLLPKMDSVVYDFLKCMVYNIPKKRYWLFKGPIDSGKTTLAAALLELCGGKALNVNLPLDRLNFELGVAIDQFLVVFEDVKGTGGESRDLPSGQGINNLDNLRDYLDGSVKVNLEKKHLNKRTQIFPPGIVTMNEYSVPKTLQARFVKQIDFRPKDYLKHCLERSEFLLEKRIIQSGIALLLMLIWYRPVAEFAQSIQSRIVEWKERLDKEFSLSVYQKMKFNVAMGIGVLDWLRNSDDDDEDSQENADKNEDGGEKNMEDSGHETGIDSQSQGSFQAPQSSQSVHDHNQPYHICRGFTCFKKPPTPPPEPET
# Cytochrome P450 2D6, sequence (P10635 whole entry): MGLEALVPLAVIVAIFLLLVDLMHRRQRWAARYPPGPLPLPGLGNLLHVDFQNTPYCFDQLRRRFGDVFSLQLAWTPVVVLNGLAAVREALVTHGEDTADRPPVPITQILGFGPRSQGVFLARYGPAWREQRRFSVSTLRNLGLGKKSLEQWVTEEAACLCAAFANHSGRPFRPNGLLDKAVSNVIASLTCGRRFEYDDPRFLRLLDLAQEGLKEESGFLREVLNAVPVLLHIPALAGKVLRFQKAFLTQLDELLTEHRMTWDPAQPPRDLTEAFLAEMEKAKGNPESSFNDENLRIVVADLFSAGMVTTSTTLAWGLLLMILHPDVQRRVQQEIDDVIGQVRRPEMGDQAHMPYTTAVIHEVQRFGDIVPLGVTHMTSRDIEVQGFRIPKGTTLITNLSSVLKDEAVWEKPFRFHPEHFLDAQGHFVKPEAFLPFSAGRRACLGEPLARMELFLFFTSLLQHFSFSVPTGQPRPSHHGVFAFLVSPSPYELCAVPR
structure (smiles),measurement,setting,value
Cn1cc(CCNC(=O)CC2C(=O)NCCN2Cc2cccc(Oc3ccccc3)c2)cn1 (centres undefined),EC50,[1],> 195 µM (not active)
CC(=O)N1c2ccc(S(=O)(=O)N3c4ccccc4CC3C)cc2CC1C (centres undefined),CC50,[2],15.1 µM (active)
Cc1ccc(CN2CC(C(=O)Nc3ccc(C)cn3)CC2=O)cc1 (centres undefined),EC50,[1],> 195 µM (not active)
COc1ccc(NCc2ccc(OC)c(Cn3ccnc3)c2)c(OC)c1,EC50,[3],0.588 µM (active)
same,EC50,[4],> 60 µM (not active)
same,AC50,[5],1.76 µM (active)
COc1cccc(CNc2ncc(C(=O)Nc3cc(OC)c(OC)c(OC)c3)c(C)n2)c1,EC50,BJ [6],17.9 µM (inconclusive)
same,EC50,BJ [7],> 150 µM (not active)
same,EC50,[8],19.6 µM (inconclusive)
same,EC50,BJ [9],46.7 µM (active)
Cc1ccccc1OCC(=O)NC(=S)Nc1ccc(Br)c(C)n1,EC50,[10],25.1 µM (active)
same,EC50,[11],21 µM (active)
same,EC50,[12],14.2 µM (active)
same,EC50,Streptokinase A,57.1 µM (active)
same,AC50,Cytochrome P450 1A2,3.16 µM (inconclusive)
same,EC50,[13],> 150 µM (not active)
same,EC50,Streptococcus,> 150 µM (not active)
CNc1ccccc1C(C)(C)c1cc(-c2cc(C)cc(C)c2)no1,AC50,[14],13.3 µM (active)
Cc1cc(C(=O)N2CCCC(Nc3ccccc3)C2)c2ccc(F)cc2n1 (centres undefined),AC50,[5],2.24 µM (active)
CC(C)C(=O)Nc1ccc2c(c1)nc1n2CCSC1,AC50,[5],0.245 µM (active)
CN(C)c1ccc(-c2nnc(S)n2-c2ccccc2)cc1,AC50,[5],64.6 µM (active)
Cc1cc(C(=O)CSc2ccccc2)cc(C)c1O,CC50,[2],49.6 µM (active)
Fc1cccc(-c2cc3nc4c(c(NCc5ccco5)n3n2)CCCC4)c1,AC50,[14],6.81 µM (active)
COC(=O)C1=C(c2cc3ccccc3o2)C[C@@H]2CC[C@H]1N2C(=O)N1CCCCC1,EC50,[10],> 120 µM (not active)
same,EC50,[11],12.1 µM (active)
same,EC50,BJ [6],20.9 µM (active)
same,EC50,BJ [7],4.58 µM (active)
same,EC50,[12],10.5 µM (active)
same,EC50,[8],3.8 µM (inconclusive)
same,EC50,BJ [9],28.8 µM (active)
O=Cc1c(N2CCN(c3ccccc3)CC2)nc2ccccn2c1=O,EC50,H4,> 120 µM (not active)
same,EC50,[15],> 120 µM (not active)
same,AC50,[5],3.72 µM (active)
same,EC50,[16],17.8 µM (active)
O=C(NN=C1CCCCCCCCCCC1)c1ccccc1F,EC50,[1],> 195 µM (not active)
CN(C)c1ccc(CNS(=O)(=O)c2ccc3c(c2)NC(=O)CS3)cc1,AC50,[5],7.37 µM (active)
COc1cc(SC)ccc1C(=O)N1CCN(c2ccc(O)cc2)CC1,IC50,Large T antigen,5.95 µM (active)
same,AC50,[5],0.68 µM (active)
Cc1cc2nc(SCCOC(=O)Nc3cccc(Cl)c3)nc(C)c2cc1C,CC50,[2],32.2 µM (active)
CNc1nnc(-c2cccc(N(C)C)c2)s1,AC50,[5],0.046 µM (active)
C=CCn1c(SCc2c(C)noc2C)nc2sc3c(c2c1=O)CCC(C)C3 (centres undefined),EC50,BJ [6],> 150 µM (inconclusive)
same,EC50,BJ [7],23.8 µM (active)
same,EC50,[8],9.03 µM (active)
same,EC50,BJ [9],4.12 µM (inconclusive)
O=C(O)c1ccccc1C(=O)Nc1ccc(Nc2ccc([N+](=O)[O-])cc2[N+](=O)[O-])cc1,AC50,[5],3.88 µM (active)
Cc1ccc2nc(O)c(CN(c3cccc(C)c3C)S(=O)(=O)c3ccccc3)cc2c1,EC50,BJ [6],> 150 µM (not active)
same,EC50,BJ [7],78.2 µM (active)
same,EC50,[8],69.9 µM (active)
same,EC50,BJ [9],46.6 µM (active)
COc1ccc(NC(S)=Nc2ccc(Oc3ccccc3)cc2)cc1,EC50,[1],> 195 µM (not active)
C[C@@H]1CCC(=O)N(CC[C@H](Sc2ccc(Br)cc2)c2ccccc2)CC1,AC50,[14],5.03 µM (active)
O=C(Nc1ccc(Nc2ccccc2)cc1)c1cccc(F)c1,AC50,[14],3.9 µM (active)
COCCCn1c2nc3ccccc3nc2c2c(=O)n(Cc3ccc(Cl)cc3)cnc21,CC50,[2],> 50 µM (active)
Cc1cc(C)n(CCc2nc(-c3ccco3)cs2)n1,IC50,Large T antigen,65.6 µM (active)
same,AC50,[5],4.56 µM (active)
COc1ccc(CCNC(=O)CN2CCN(Cc3ccccc3F)C2=O)cc1OC,EC50,[1],> 195 µM (not active)
NC1=NC(c2c[nH]nc2-c2cccc(F)c2)n2c(nc3ccccc32)N1 (centres undefined),EC50,[1],27.5 µM (active)
S=C(Sc1ccc(Cl)cc1)Sc1ccc(Cl)cc1,EC50,BJ [6],13.1 µM (inconclusive)
same,EC50,BJ [7],3.4 µM (inconclusive)
same,EC50,[8],9.25 µM (active)
same,EC50,BJ [9],> 150 µM (inconclusive)
CCOC(=O)c1sc(NC(=O)c2ccccc2OC)nc1C,EC50,BJ [6],> 150 µM (inconclusive)
same,EC50,BJ [7],22.3 µM (active)
same,EC50,[8],14.7 µM (active)
same,EC50,BJ [9],22.8 µM (active)
Cc1cccc2c1NC(=O)/C2=C\C(=O)c1cccs1,AC50,[14],5.12 µM (active)
Cc1cccc(NC(=S)N/N=C/c2c[nH]c3ccccc23)c1,AC50,[14],0.704 µM (active)
Cc1ccc(-c2nnc(SCC(=O)N/N=C/c3c(C)nn(-c4ccccc4)c3C)n2-c2ccc(C)cc2)cc1,CC50,[2],20.5 µM (active)
COc1ccc(/C=N/NC(=O)c2cc(-c3cccn3C)[nH]n2)cc1OC,EC50,[1],> 195 µM (not active)
COc1cc(/C=N\Nc2nc3ccccc3[nH]2)cc(OC)c1OC,AC50,Cytochrome P450 2D6,17.8 µM (inconclusive)
same,AC50,Cytochrome P450 2C19,17.8 µM (inconclusive)
same,AC50,[5],0.997 µM (active)
Cc1ccc(-c2nnc(SCC(=O)N/N=C/c3c(C)nn(-c4ccccc4)c3C)n2-c2ccccc2)cc1,CC50,[2],17.2 µM (active)
Clc1cccc(Nc2nc(-c3ccncc3)cs2)c1,EC50,[3],0.714 µM (active)
same,EC50,[4],5.87 µM (active)
same,AC50,[14],3.5 µM (active)
COc1ccc(Nc2cc(C)c3ccc(O)cc3n2)cc1,CC50,[2],11.7 µM (active)
O=C(O)Cc1cc(I)c(Oc2ccc(O)c(I)c2)c(I)c1 [TIRATRICOL],AC50,Cytochrome P450 1A2,12.6 µM (inconclusive)
same,CC50,[2],13 µM (active)
